Assay [1] addresses T1, human P2X3 receptors (Homo sapiens, UniProt P56373).
T1 construct: expressed in transfected cells; host or cells: Xenopus laevis oocytes (nuclear injection of the P2X3 insert in pCDNA3.1)
T1 sequence (P56373 1-397): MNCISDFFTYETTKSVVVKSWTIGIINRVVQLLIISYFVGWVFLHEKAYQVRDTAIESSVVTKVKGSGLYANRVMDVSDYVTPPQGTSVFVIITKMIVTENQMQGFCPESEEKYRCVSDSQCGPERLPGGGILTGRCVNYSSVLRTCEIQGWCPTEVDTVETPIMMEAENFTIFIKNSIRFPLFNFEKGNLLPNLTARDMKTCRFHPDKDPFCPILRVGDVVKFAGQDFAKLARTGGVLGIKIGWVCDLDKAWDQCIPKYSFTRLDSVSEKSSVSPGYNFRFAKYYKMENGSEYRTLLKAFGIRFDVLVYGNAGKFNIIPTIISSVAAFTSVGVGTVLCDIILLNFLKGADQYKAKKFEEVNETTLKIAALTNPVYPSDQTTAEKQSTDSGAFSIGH
The assay can be described thus: Two-electrode voltage-clamp of Xenopus oocytes expressing recombinant human P2X3 receptor. Format: cell-based. The conditions noted are these: for rank order potency: extracellular P2 receptor agonists; for rank order potency / block of P2X3 receptors: summary; for block of ATP-induced currents: ATP 0.3 μM, antagonist superfused at least 3 minutes before agonist; for block of P2X3 receptors: P2 receptor antagonists. How it is done:
Responses were measured at a holding potential of -60 mV in modified Barth's solution containing 10 mM BaCl2 and lacking CaCl2 and MgCl2 (final pH 7.4). However, in some experiments, the cell potential was intentionally varied in order to determine the response current-voltage relationship. Agonist was applied briefly using a computer-controlled solenoid valve and a push/pull applicator positioned to within 200-400 μm from the oocyte. Responses were recorded by computer in synchrony with agonist application. Antagonists were included with agonist in the push/pull applicator and were applied to the bath by superfusion for at least 3 minutes before application of agonist. Responses were quantified by measuring the peak amplitude.
The clone was grown up and prepared in large scale using the QIAgen maxiprep DNA preparation system according to the manufacturer's instructions. T he DNA was ethanol precipitated and resuspended in TE buffer. For RNA production, the P2X3 -pCDNA3.1 construct was linearized by digestion with the restriction enzyme NotI and P2X3 messenger RNA was produced using the T7 promoter in this vector and the Ambion mMessage mMachine™ in vitro transcription kit according to the manufacturer's instructions.
For functional anaysis of human P2X3 receptors, 10 ng of human P2X3 DNA prepared as described above were injected into the nucleus of Xenopus oocytes. Oocytes were incubated in normal Barth's solution containing 100 μg/ml gentamicin for 2-7 days following injection. The response to 10 μM ATP was then recorded.

Assay [2] has as its system P2X receptors on dorsal root ganglion nerve terminals in the spinal cord. The note with it: ATP-induced activation of P2X receptors on dorsal root ganglion nerve terminals; cited from earlier work.
Assay [3] relates to P2X6 receptor. The note with it: cited from earlier work.
The subject of assay [4] is P2X4 receptor. The conditions noted are these: cited from earlier work.
The subject of assay [5] is P2X1. The conditions noted are these: cited from earlier work.
Assay [6] deals with P2X2. The note with it: cited from earlier work.

Read-outs that look alike come from different tables or passages of the source.

With `CSc1nc(N)c2ncn([C@@H]3O[C@H](COP(=O)(O)OP(=O)(O)OP(=O)(O)O)[C@@H](O)[C@H]3O)c2n1` [2-methylthio-ATP], the EC50 in assay [1] (concentration-response, agonist, human P2X3 in Xenopus oocytes, ATP 0.01-1000 μM, read-out: EC50) was found to be 400 nM. In addition, the rank order potency in assay [1] is listed as 2-methylthio-ATP>ATP>α,β-methylene-ATP.

Take `Nc1ncnc2c1ncn2[C@@H]1O[C@H](COP(=O)(O)OP(=O)(O)OP(=O)(O)O)[C@@H](O)[C@H]1O` [ATP]: in assay [2], the release of glutamate entry is listed as “stimulates the release of glutamate”. In assay [1], the EC50 was around 700 nM and the rank order potency is 2-methylthio-ATP>ATP>α,β-methylene-ATP. In assay [1] (ATP-induced current-voltage relationships), the reversal potential result is “approximately zero”. The current-voltage rectification entry in assay [1] (ATP-induced, negative membrane potentials) is recorded as “pronounced inward rectification”. For the same molecule, the mixed-conductance cation current in assay [1] (extracellular ATP (10 μM), holding potential -60 mV, oocytes injected with human P2X3 DNA) is 100-6000 nA.

Turning to `Cc1nc(N=Nc2ccc(S(=O)(=O)O)cc2S(=O)(=O)O)c(COP(=O)(O)O)c(C=O)c1O` [PPADS, pyridoxal-phosphate-6-azophenyl-2',4'-disulfonic acid], in assay [3], the “block of P2X6 receptor” value was “cannot be blocked”. In addition, the “block of P2X4 receptor” value in assay [4] is “cannot be blocked”. In assay [1], the “block of ATP-induced currents” value was “complete block” and the “block of P2X3 receptors” value is reported as “blocked”.

For `Cc1ccc(C(=O)Nc2ccc(S(=O)(=O)O)c3cc(S(=O)(=O)O)cc(S(=O)(=O)O)c23)cc1NC(=O)c1cccc(NC(=O)Nc2cccc(C(=O)Nc3cc(C(=O)Nc4ccc(S(=O)(=O)O)c5cc(S(=O)(=O)O)cc(S(=O)(=O)O)c45)ccc3C)c2)c1` [suramin], the “block of P2X6 receptor” value in assay [3] is “cannot be blocked”. In assay [4], the “block of P2X4 receptor” value is “cannot be blocked”. Moreover, in assay [1], the “block of ATP-induced currents” value is listed as “complete block” and the “block of P2X3 receptors” value is recorded as “blocked”.

In the case of `Nc1ncnc2c1ncn2[C@@H]1O[C@H](COP(=O)(O)CP(=O)(O)OP(=O)(O)O)[C@@H](O)[C@H]1O` [α,β-methylene-ATP], in assay [3] (agonist), the “activation of P2X6 receptor” value is given as “not activated”. Further, the “sensitivity of P2X1 to agonist” value in assay [5] was “sensitive”. Moreover, the “activation of P2X4 receptor” value in assay [4] (agonist) was “not activated”. Further, the “sensitivity of P2X2 to agonist” value in assay [6] is recorded as “insensitive”. Moreover, in assay [1], the EC50 is 2100 nM and the rank order potency is given as 2-methylthio-ATP>ATP>α,β-methylene-ATP.

(Values after patent US6214581A, “Nucleic acids encoding a functional human purinoreceptor P2X3 and P2X6, and methods of production and use thereof” (Abbott Laboratories, priority 1998, dated 2001).)
